Experimental findings from patent US20230203043A1, “NOVEL IMIDAZOPYRAZINE DERIVATIVES” (Hoffmann-La Roche Inc., priority 2020, published 2023) are described below.

Where a name gives a salt, the structure may show the parent alone.

The first assay has as its system Acinetobacter baumannii ATCC17961. As to the kind of experiment: Antimicrobial susceptibility testing: 90% growth inhibitory concentration (IC90) determination in Iso-Sensitest broth, OD600 growth. The assay is classed as cell-based. As to conditions: Acinetobacter baumannii, ATCC17961, 16 h, read-out: A. baumannii ATCC 17961 IC90 (uM), strain ATCC 17961, OD600 growth over 16 h. The essentials: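 Serial twofold dilution, 10 points, e.g. 50–0.097 μM final; ~5×10^(5) CFU/ml; 35±2° C, 16 h; kinetic OD600 every 20 min; IC90 from log-phase inhibition.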
A word on the IC90: it is the point of the concentration-response curve where the effect stands at 90%. `Cc1cnc(Cn2cc(-c3cnc4c(Nc5ccc(C(=O)N6CCNCC6)c(Cl)c5)nccn34)c(C(F)(F)F)n2)nc1` [Example 160, [2-chloro-4-[[3-[1-[(5-methylpyrimidin-2-yl)methyl]-3-(trifluoromethyl)pyrazol-4-yl]imidazo[1,2-a]pyrazin-8-yl]amino]phenyl]-piperazin-1-ylmethanone formate]: the IC90 came to 0.63 µM. `N#CCn1cc(-c2cnc3c(Nc4ccc(C(=O)N5CCN(CC(=O)NCCN)CC5)c(Cl)c4)nccn23)c(C(F)(F)F)n1` [Example 602, N-(2-aminoethyl)-2-(4-(2-chloro-4-((3-(1-(cyanomethyl)-3-(trifluoromethyl)-1H-pyrazol-4-yl)imidazo[1,2-a]pyrazin-8-yl)amino)benzoyl)piperazin-1-yl)acetamide formate]: the IC90 is 0.448 µM. As to `CCc1cc(Nc2nccn3c(-c4cn(CC#N)nc4C(F)(F)F)cnc23)ccc1C(=O)NCCCNC(=O)CN` [Example 802, N-(3-(2-aminoacetamido)propyl)-4-((3-(1-(cyanomethyl)-3-(trifluoromethyl)-1H-pyrazol-4-yl)imidazo[1,2-a]pyrazin-8-yl)amino)-2-ethylbenzamide formate], the IC90 is 3.54 µM. For `C=CCn1cc(-c2cnc3c(Nc4ccc(C(=O)NCCOCCN)c(CC)c4)nccn23)c(C(F)(F)F)n1` [Example 272, N-[2-(2-aminoethoxy)ethyl]-2-ethyl-4-[[3-[1-prop-2-enyl-3-(trifluoromethyl)pyrazol-4-yl]imidazo[1,2-a]pyrazin-8-yl]amino]benzamide formate], the IC90 amounted to 0.085 µM. `CCc1cc(Nc2nccn3c(-c4cn(CC5CC5(F)F)nc4C(F)(F)F)cnc23)ccc1C(=O)NCCOCCN` (stereo not drawn) [Example 277, N-[2-(2-aminoethoxy)ethyl]-4-[[3-[1-[(2,2-difluorocyclopropyl)methyl]-3-(trifluoromethyl)pyrazol-4-yl]imidazo[1,2-a]pyrazin-8-yl]amino]-2-ethylbenzamide formate]: the 90% effect concentration (IC90) was found to be 0.186 µM. As for `O=C(CC1CCNCC1)N1CCN(C(=O)c2ccc(Nc3nccn4c(-c5cn(CC(F)F)nc5C(F)(F)F)cnc34)cc2Cl)CC1` [Example 578, 1-(4-(2-chloro-4-((3-(1-(2,2-difluoroethyl)-3-(trifluoromethyl)-1H-pyrazol-4-yl)imidazo[1,2-a]pyrazin-8-yl)amino)benzoyl)piperazin-1-yl)-2-(piperidin-4-yl) ethan-1-one formate], the IC90 worked out at 0.394 µM. Still for that read-out and setting: in the case of `Cc1ccnc(Cn2cc(-c3cnc4c(Nc5ccc(C(=O)N6CCNCC6)c(Cl)c5)nccn34)c(C(F)(F)F)n2)n1` [Example 161, [2-chloro-4-[[3-[1-[(4-methylpyrimidin-2-yl)methyl]-3-(trifluoromethyl)pyrazol-4-yl]imidazo[1,2-a]pyrazin-8-yl]amino]phenyl]-piperazin-1-ylmethanone formate] it was 0.764 µM; in that of `CCc1cc(Nc2nccn3c(-c4cn(C(C)C#N)nc4C(F)(F)F)cnc23)ccc1C(=O)NCC1CC1N` (stereo not drawn) [Example 700, N-((2-aminocyclopropyl)methyl)-4-((3-(1-(1-cyanoethyl)-3-(trifluoromethyl)-1H-pyrazol-4-yl)imidazo[1,2-a]pyrazin-8-yl)amino)-2-ethylbenzamide formate], 0.382 µM; in that of `NC1CN(C(=O)N2CCN(C(=O)c3ccc(Nc4nccn5c(-c6c[nH]nc6C(F)(F)F)cnc45)cc3Cl)CC2)C1` [Example 266, [4-(3-aminoazetidine-1-carbonyl)piperazin-1-yl]-[2-chloro-4-[[3-[3-(trifluoromethyl)-1H-pyrazol-4-yl]imidazo[1,2-a]pyrazin-8-yl]amino]phenyl] methanone formate], 0.282 µM.

On to `CCc1cc(Nc2nccn3c(-c4cn(CC(F)F)nc4C(F)(F)F)cnc23)ccc1C(=O)NCC(=O)NCC1(O)CNC1` [Example 546, 4-[[3-[1-(2,2-difluoroethyl)-3-(trifluoromethyl)pyrazol-4-yl]imidazo[1,2-a]pyrazin-8-yl]amino]-2-ethyl-N-[2-[(3-hydroxyazetidin-3-yl)methylamino]-2-oxo-ethyl]benzamide formate], for which the IC90 turned out to be 0.298 µM. On the same count and under the same terms, to `N[C@H]1CN[C@H](C(=O)N2CCN(C(=O)c3ccc(Nc4nccn5c(-c6c[nH]nc6C(F)(F)F)cnc45)cc3Cl)CC2)C1` [Example 200, [4-[(2S,4R)-4-aminopyrrolidine-2-carbonyl]piperazin-1-yl]-[2-chloro-4-[[3-[3-(trifluoromethyl)-1H-pyrazol-4-yl]imidazo[1,2-a]pyrazin-8-yl]amino]phenyl] methanone formate] belongs 0.372 µM.

Staying with this assay, now noted: Acinetobacter baumannii, ATCC17961, 16 h, strain ATCC 17961, OD600 growth over 16 h, read-out: A. baumannii ATCC 17961 IC90.
As for `CCc1cc(Nc2nccn3c(-c4cn(CC#N)nc4C(F)(F)F)cnc23)ccc1C(=O)NCCOCC(C)(C)N` [Example 60, N-[2-(2-amino-2-methylpropoxy)ethyl]-4-[[3-[1-(cyanomethyl)-3-(trifluoromethyl)pyrazol-4-yl]imidazo[1,2-a]pyrazin-8-yl]amino]-2-ethylbenzamide], the concentration for an effect of 90% (IC90) stood at 0.23 µM. The same measure, in the same setting: in the case of `N#CCn1cc(-c2cnc3c(Nc4ccc(C(=O)N5CC6(CNC6)C5)c(Cl)c4)nccn23)c(C(F)(F)F)n1` [Example 102, 2-[4-[8-[3-chloro-4-(2,6-diazaspiro[3.3]heptane-2-carbonyl)anilino]imidazo[1,2-a]pyrazin-3-yl]-3-(trifluoromethyl)pyrazol-1-yl]acetonitrile] it was 0.18 µM; in that of `C#CCn1cc(-c2cnc3c(Nc4ccc(C(=O)N5CCN(C(=O)[C@H](C)N)CC5)c(CC)c4)nccn23)c(C(F)F)n1` [Example 694, (S)-2-amino-1-(4-(4-((3-(3-(difluoromethyl)-1-(prop-2-yn-1-yl)-1H-pyrazol-4-yl)imidazo[1,2-a]pyrazin-8-yl)amino)-2-ethylbenzoyl)piperazin-1-yl)propan-1-one], 0.358 µM; in that of `O=C(NC1CNC1)N1CCN(C(=O)c2ccc(Nc3nccn4c(-c5cn(CC(F)F)nc5C(F)(F)F)cnc34)cc2Cl)CC1` [Example 581, N-(azetidin-3-yl)-4-(2-chloro-4-((3-(1-(2,2-difluoroethyl)-3-(trifluoromethyl)-1H-pyrazol-4-yl)imidazo[1,2-a]pyrazin-8-yl)amino)benzoyl) piperazine-1-carboxamide formate], 0.354 µM.

For `C[C@H]1CNCCN1C(=O)c1ccc(Nc2nccn3c(-c4c[nH]nc4C(F)(F)F)cnc23)cc1Cl` [Example 325, [2-chloro-4-[[3-[3-(trifluoromethyl)-1H-pyrazol-4-yl]imidazo[1,2-a]pyrazin-8-yl]amino]phenyl]-[(2S)-2-methylpiperazin-1-yl]methanone], the IC90 stood at 2.02 µM. For `NCC(=O)N1CC2(C1)CN(C(=O)c1ccc(Nc3nccn4c(-c5cn(CC(F)F)nc5C(F)(F)F)cnc34)cc1Cl)C2` [Example 651, 2-amino-1-(6-(2-chloro-4-((3-(1-(2,2-difluoroethyl)-3-(trifluoromethyl)-1H-pyrazol-4-yl)imidazo[1,2-a]pyrazin-8-yl)amino)benzoyl)-2,6-diazaspiro[3.3]heptan-2-yl)ethan-1-one], the IC90 was found to be 0.254 µM. Still for that read-out and setting: to `CCc1cc(Nc2nccn3c(-c4cn(CC#N)nc4C(F)(F)F)cnc23)ccc1C(=O)NCCOC[C@H](C)N` [Example 152, N-[2-[(2S)-2-aminopropoxy]ethyl]-4-[[3-[1-(cyanomethyl)-3-(trifluoromethyl)pyrazol-4-yl]imidazo[1,2-a]pyrazin-8-yl]amino]-2-ethylbenzamide] belongs 0.241 µM; to `CCc1cc(Nc2nccn3c(-c4cn(CC(F)F)nc4C(F)(F)F)cnc23)ccc1C(=O)N1CCC(CN)CC1` [Example 58, [4-(aminomethyl)piperidin-1-yl]-[4-[[3-[1-(2,2-difluoroethyl)-3-(trifluoromethyl)pyrazol-4-yl]imidazo[1,2-a]pyrazin-8-yl]amino]-2-ethylphenyl] methanone], 0.209 µM; to `CCc1cc(Nc2nccn3c(-c4cn(CC(F)F)nc4C(F)(F)F)cnc23)ccc1C(=O)NCCNC(=O)[C@@H]1CC[C@H](N)C1` [Example 497, N-(2-((1R,3S)-3-aminocyclopentane-1-carboxamido)ethyl)-4-((3-(1-(2,2-difluoroethyl)-3-(trifluoromethyl)-1H-pyrazol-4-yl)imidazo[1,2-a]pyrazin-8-yl)amino)-2-ethylbenzamide formate], 0.183 µM.

In the case of `C=CCn1cc(-c2cnc3c(Nc4ccc(C(=O)N5CCN(C(=O)[C@@H]6C[C@@H](O)CN6)CC5)c(CC)c4)nccn23)c(C(F)F)n1` [Example 774, (4-(4-((3-(1-allyl-3-(difluoromethyl)-1H-pyrazol-4-yl)imidazo[1,2-a]pyrazin-8-yl)amino)-2-ethylbenzoyl)piperazin-1-yl)((2S,4R)-4-hydroxypyrrolidin-2-yl)methanone], the IC90 came out at 0.986 µM. On the same count and under the same terms, in the case of `CCc1cc(Nc2nccn3c(-c4cn(CC(C)CO)nc4C(F)(F)F)cnc23)ccc1C(=O)NCCOCCN` (stereo not drawn) [Example 267, N-[2-(2-aminoethoxy)ethyl]-2-ethyl-4-[[3-[1-(3-hydroxy-2-methylpropyl)-3-(trifluoromethyl)pyrazol-4-yl]imidazo[1,2-a]pyrazin-8-yl]amino]benzamide] it was 0.225 µM.

The same assay, now with this note: strain ATCC 17961, OD600 growth over 16 h, read-out: A. baumannii ATCC 17961 IC90.
Turning to `NC1CC(NC(=O)c2ccc(Nc3nccn4c(-c5c[nH]nc5C(F)(F)F)cnc34)cc2Cl)C1` (stereo not drawn) [Example 384, N-(3-aminocyclobutyl)-2-chloro-4-[[3-[3-(trifluoromethyl)-1H-pyrazol-4-yl]imidazo[1,2-a]pyrazin-8-yl]amino]benzamide], the IC90 amounted to 0.833 µM.

As to `C#CCn1cc(-c2cnc3c(Nc4ccc(C(=O)N[C@H](C)CNC(=O)OC(C)(C)C)c(CC)c4)nccn23)c(C(F)(F)F)n1` [Example 128, tert-butyl N-[(2R)-2-[[2-ethyl-4-[[3-[1-prop-2-ynyl-3-(trifluoromethyl)pyrazol-4-yl]imidazo[1,2-a]pyrazin-8-yl]amino]benzoyl]amino]propyl] carbamate], the IC90 was determined as 0.659 µM.
